The values that follow come from paper PMC8335727 (Inorganic Chemistry, 2021).

Data set [1] in a line: log D7.4 by shake-flask method, n-octanol/buffered aqueous solution. Conditions: partitioning, n-octanol/water, pH 7.4, read-out: log D7.4 (proligand). Format: physicochemical. Here is the method: Besides pKa values, lipophilicity is also an important pharmacological property of a drug, as it strongly influences the ability of the compound to pass through biological membranes. Therefore, distribution coefficients (log D7.4) were determined using the shake-flask method in an n-octanol-buffered aqueous solution at pH 7.4 (Table 1). The log D7.4 values indicate the moderate lipophilic character of the proligands. The substitution at the end nitrogen atom of the thosemicarbazide moiety and the presence of a methyl group at the Schiff base bond induce a somewhat higher lipophilicity. The presence of the phenolic moiety undoubtedly increases the log D7.4 values compared to those of FTSC (+0.73),[67]
The time-dependence of UV–vis absorption spectra was monitored for proligands HL2 at pH 7.4, 1.5 and 10.0 in 30% (v/v) DMSO/H2O, and for HL1 and HL3 at pH 7.4.
The redox reaction of the copper(II) complexes (25 µM) with GSH (1250 µM) was studied at 7.40 (50 mM HEPES buffer with 0.1 M KCl) and at 25.0 ± 0.1 °C on Hewlett Packard 8452A diode array spectrophotometer using a special, tightly closed tandem cuvette (Hellma Tandem Cell, 238-QS) as described previously.6,7 Calculation of the observed rate constants (kobs) of the redox reaction was performed by using a reported approach.6,7
Distribution coefficients (D7.4) values were determined by the traditional shake-flask method in n-octanol/buffered aqueous solution at pH 7.40 (50 mM HEPES buffer at 25.0 ± 0.2 °C as described previously in our previous work.8
2.4. Spectroelectrochemical studies
Cyclic voltammetry experiments with 0.5 mM solutions of Cu(II) complexes and corresponding ligands in 0.1 M n-Bu4NPF6 in both DMSO and methanol were performed under argon atmosphere using a three-electrode arrangement with glassy carbon 1 mm disc working electrode (from Ionode, Australia), platinum wire as counter electrode, and silver wire as pseudo -reference electrode. As a supporting e lectrolyte, 0.1 M n-Bu4NPF6 was used in DMSO (SeccoSolv max.
0.025% H2O, Merck) and 0.1 M LiClO4 (≥95.0%, Merck) in methanol. […]

The test system of a further data set is Colo205. In words: MTT cytotoxicity assay, Colo205. Format: cell-based. The settings on record: Homo sapiens, COLO 205, 72 h of exposure. The procedure:
The in vitro cytotoxicity of the TSCs HL^1–HL^3, copper(II) complexes Cu(HL^1)Cl2, [Cu(L^2)Cl], and Cu(HL^3)Cl2, and oxidized TSCs HL^1a′, HL^1a″, and HL^2c′·CH3COOH was tested in the doxorubicin-sensitive Colo205 and the multidrug-resistant Colo320 human colonic adenocarcinoma cell lines as well as in normal human embryonal lung fibroblast cells (MRC-5) by the colorimetric MTT assay. […]
2.5. In vitro cell studies
2.5.1. Cell lines and culture conditions
All cell culture reagents were obtained from Sigma-Aldrich and plastic ware from Sarstedt
(Germany). Doxorubicin-sensitive human colonic Colo 205 and multidrug resistant
Colo 320/MDR-LRP adenocarcinoma cell lines were purchased from LGC Promochem,
Teddington, UK. The cells were cultured in Roswell Park Memorial Institute (RPMI) 1640
medium supplemented with 10% heat-inactivated fetal bovine serum, 2 mM L-glutamine, 1 mM
Na-pyruvate and 100 mM Hepes. The cell lines were incubated at 37°C, in a 5% CO2, 95% air
MRC-5 human embryonal lung fibroblast cell line (ATCC CCL-171) was purchased from LGC
Promochem, Teddington, UK. The cell line was cultured in Eagle’s Minimal Essential Medi um
(EMEM, containing 4.5 g/L glucose) supplemented with a non-essential amino acid mixture, a
selection of vitamins and 10% heat-inactivated fetal bovine serum. The cells were incubated at
37°C, in a 5% CO2, 95% air atmosphere. All cell lines were detached with Trypsin-Versene
(EDTA) solution for 5 min at 37 °C.
The tested compounds were dissolved in DMSO using 10 mM concentration. Then stock solutions
were diluted in complete culture medium in 96-well microtiter plates, and two-fold serial dilutions
of compounds were prepared in 100 µL of RPMI 1640, horizontally. The semi-adherent colonic
adenocarcinoma cells were treated with Trypsin -Versene (EDTA) solution. They were adjusted to
a density of 1×10^4 cells in 100 µL of RPMI 1640 medium, and were added to each well, with the
exception of the medium control wells. The final volume of the wells containing compounds and
cells was 200 µL. The culture were incubated at 37 °C for 72 h; at the end of the incubation period,
20 µL of MTT solution (from a stock solution of 5 mg/mL) were added to each well. After
incubation at 37 °C for 4 h, 100 µL of SDS solution (10% in 0.01 M HCI) were added to each well
and the plates were further incubated at 37 °C overnight. The cell growth was determined using
both methods by measuring the optical density (OD) at 450 nm (ref. 620 nm) with a Multiscan EX
ELISA reader. Inhibition of the cell growth (expressed as IC 50: inhibitory concentration that
reduces by 50% the growth of the cells exposed to the tested compounds) was determined from
the sigmoid curve where 100 – ((ODsample ‒ ODmedium control)/(ODcell control ‒ ODmedium control)) × 100
values were plotted against the logarithm of compound concentrations. […]
0.76 tyrosyl radical/polypeptide. Samples containing 20 µM mR2 in 50 mM HEPES buffer, pH
7.50/100 mM NaCl, and 20 µM respective compound in 1% (v/v) DMSO/H2O, and 2 mM

Molecules are shown by their SMILES.

Regarding `Cc1cc(NC(=S)NN=Cc2ncccc2N)cc(C)c1O` [HL^3, 3-Amino-2-formylpyridine 4-(4-hydroxy-3,5-dimethylphenyl)thiosemicarbazone], the logD in data set [1] was determined as 1.67. Besides, in the data set on Colo205, the 50% inhibitory concentration (IC50) (commonly the concentration that inhibits the measured activity by half) worked out at 48.2 ± 6.8 µM.

`CC(=NNC(=S)Nc1cc(C)c(O)c(C)c1)c1ccccn1` [HL^2, 2-Acetylpyridine 4-(4-hydroxy-3,5-dimethylphenyl)thiosemicarbazone]: the logD in data set [1] came to 2.1. The molecule also returned a half-maximal inhibitory concentration (IC50) in the data set on Colo205 greater than 100 µM.

As for `Cc1cc(NC(=S)NN=Cc2ccccn2)cc(C)c1O` [HL^1, 2-Formylpyridine 4-(4-hydroxy-3,5-dimethylphenyl)thiosemicarbazone], the logD in data set [1] came to 1.3. Also, in the data set with Colo205, the IC50 is greater than 100 µM.
